Reference: patent US20190011433A1, “CELL CO-CULTURE SYSTEMS AND USES THEREOF” (Dana-Farber Cancer Institute, Inc., priority 2007, published 2019)
Entries after “also recorded” stand apart in the source; their conditions may differ.

What was measured:
[1] = test system: K562-luc leukemia cells; assay: CS-BLI drug sensitivity of K562-luc leukemia cells in presence vs absence of HS-5 BMSCs; assay type: cell-based; conditions: presence vs absence of HS-5 BMSCs (10,000 per well)
Text: (§1) Applicants expanded the application of in vitro compartment-specific bioluminescence imaging assays beyond the MM cells to other tumor models, namely a few leukemic cell lines. Applicants specifically tested luciferase-expressing K562-luc-neo and KU812F-luc-neo leukemic cells against standard anti-leukemia agents, including AraC and Doxo, in the presence vs. absence of HS-5 stromal cells (FIG. 7A and FIG. 7B).

[2] = test system: MDA-MB-231met-luc-neo cells; assay: CS-BLI drug sensitivity of MDA-MB-231met-luc-neo cells alone or with HS-5 BMSCs; assay type: cell-based; conditions: MDA-MB-231met-luc-neo alone or with HS-5 BMSCs (10,000/well), 48 hrs
Procedure: (§2) MDA-MB-231met-luc-neo (FIG. 18A, FIG. 18B), A375-luc-neo (FIG. 18C, FIG. 18D) and FRO-luc-neo (FIG. 18E, FIG. 18F) cells were plated either alone or mixed with HS-5 BMSCs (10,000 /well) and treated the following day. The cultures of tumor cells and their co-cultures with BMSCs were incubated for an additional 48 hrs.

[3] = test system: FRO-luc-neo cells; assay: CS-BLI drug sensitivity of FRO-luc-neo cells alone or with HS-5 BMSCs; assay type: cell-based; conditions: FRO-luc-neo alone or with HS-5 BMSCs (10,000/well), 48 hrs
Procedure: as §2

[4] = test system: MM-1S-GFP-luc myeloma cells; assay: Flow cytometry (Apo2.7) drug sensitivity testing in tumor-stromal co-culture; assay type: cell-based, human; conditions: Doxo 250 ng/mL, 48 hrs
Procedure: Applicants also evaluated the anti-tumor effects of these drugs in the presence of stromal cells, and compared the results obtained with in vitro compartment-specific bioluminescence vs. flow cytometric evaluation of drug-induced cell death. Specifically, luciferase-expressing MM cells were treated in vitro with Doxo (250 ng/mL) or vehicle, in the absence vs. presence of bone marrow stromal cells (BMSCs). For flow cytometry-based drug sensitivity testing in tumor-stromal co-culture, tumor cell viability in the presence vs. absence of stromal cells was evaluated by flow cytometry. Specifically, after incubation with drug or vehicle, MM-1S-GFP-luc myeloma cells were stained with Apo2.7 (BD Biosciences) to detect apoptotic cells. GFP positive myeloma cells were gated to distinguish them from GFP negative stromal cells in the co-cultures. The ratio of Apo2.7 positive cells in the GFP^+ compartment of the drug-treated condition vs. the vehicle-treated condition provided a quantified expression of viable cells in response to drug treatment. […] These flow cytometric results were consistent with results obtained with CS-BLI based applications as described in Example III.

[5] = test system: MM-1S-GFP-luc myeloma cells; assay: CS-BLI drug sensitivity of MM-1S-GFP-luc cells in presence vs absence of stromal cells; assay type: cell-based, human
Procedure: Luciferin (7.5 mg/mL; Xenogen Corp, Alameda, Calif.) was added at the volume stated in each experiment. Cell viability and the precise cell counts were established by Trypan blue exclusion assay immediately before plating of the cells. Compartment-specific bioluminescence emitted by individual wells of these plates was measured with two different bioluminescence imaging modalities, namely a Xenogen IVIS® Imaging System (FIG. 1A and FIG. 1B) and a standard luminometer plate reader—Luminoskan luminometer (Labsystems, MA) (FIG. 1C). The results with each method were analyzed for the linearity of the bioluminescent signal vs. cell number using the Living Image® software (Xenogen Corp, Alameda Calif.).

[6] = test system: KU812F-luc leukemia cells; assay: CS-BLI drug sensitivity of KU812F-luc leukemia cells in presence vs absence of HS-5 BMSCs; assay type: cell-based; conditions: presence vs absence of HS-5 BMSCs (10,000 per well)
Text: In another set of experiments, Applicants tested and observed similar protective/sensitization effect of stroma cell on KU812F-luc cells on various drugs (data not shown).
as §1

[7] = test system: MM-1R-GFP-luc myeloma cells; assay: CS-BLI drug sensitivity of MM-1R-GFP-luc cells in presence vs absence of stromal cells; conditions: MM-1R-GFP-luc (Dex-resistant), presence vs absence of HS-5 BMSCs (10,000 per well)
[8] = test system: A375-luc-neo cells; assay: CS-BLI drug sensitivity of A375-luc-neo cells alone or with HS-5 BMSCs; assay type: cell-based; conditions: A375-luc-neo alone or with HS-5 BMSCs (10,000/well), 48 hrs
Procedure: as §2

COc1cccc2c1C(=O)c1c(O)c3c(c(O)c1C2=O)C[C@@](O)(C(=O)CO)C[C@@H]3O[C@H]1C[C@H](N)[C@H](O)[C@H](C)O1 [Doxo, Doxorubicin]
effect of BMSC co-culture on tumor cell response to drug (protection) [1]: do not confer protection | effect of BMSC co-culture on tumor cell response to drug (protection) [2]: modest protection | effect of BMSC co-culture on tumor cell response to drug (protection) [3]: modest protection | Apo2.7 expression in GFP+ myeloma cells, co-culture with HS-5 vs absence of stroma [4]: decreased expression of Apo2.7 | effect of BMSC co-culture on tumor cell response to drug (protection) ([5]; presence vs absence of HS-5 BMSCs (10,000 per well)): attenuated the responses; also recorded: conferred protection; also recorded: confer protection | effect of BMSC co-culture on tumor cell response to drug (protection) ([5]; presence vs absence of KM101, KM103, KM104, KM105 BMSC lines, Doxo 0-250 ng/mL): protective effects; also recorded: conferred protection | effect of BMSC co-culture on tumor cell response to drug (protection) [6]: did not affect their response | effect of BMSC co-culture on tumor cell response to drug (protection) [7]: attenuated the responses; also recorded: confer protection | effect of BMSC co-culture on tumor cell response to drug (protection) [8]: no protection
